We go through 11 compounds from PubChem BioAssay (NCI).

Some test systems named below: MCF7 breast; A549 NSCLC; COLO 205 colon; SW-620 colon; OVCAR-4 ovarian; NCI-H522 lung; UACC-62 melanoma; SN12C renal; 786-0 renal; MDA-MB-435; MOLT-4 leukemia; DU-145 prostate; SK-MEL-28 melanoma; HS 578T breast; MALME-3M melanoma; HCC-2998 colon; SNB-75 CNS; PC-3 prostate; RPMI-8226 leukemia.
What all share (test): NCI-60 cell line screen, 48 h

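Exposure lasted 48 hours, with cells grown in 96-well plates and compounds tested at five concentrations. TGI: concentration producing complete growth inhibition.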

Turning to `CN(C)c1ccc(/C=C/c2cc[n+](C)c3ccccc23)cc1`, the TGI in the assay on MCF7 breast was 7.75 µM; with A549 NSCLC, above 90.8 µM; with COLO 205 colon, 3.2 µM; in the assay with SW-620 colon, 12.9 µM; with OVCAR-4 ovarian it was 21.4 µM; in the assay on NCI-H522 lung it was 11.5 µM. Also, the TGI with UACC-62 melanoma was 12 µM; with SN12C renal, 15 µM; with 786-0 renal, 17 µM; in the assay on MDA-MB-435, 10.2 µM; in the assay on MOLT-4 leukemia, above 38.3 µM; with DU-145 prostate it was 52.2 µM. Also, the TGI in the assay on SK-MEL-28 melanoma was 21.9 µM; in the assay on HS 578T breast it was 14 µM; in the assay with MALME-3M melanoma, 17.1 µM; in the assay with HCC-2998 colon, 17 µM; in the assay with SNB-75 CNS, 12.1 µM; with PC-3 prostate it was 8.72 µM. Further, in the assay with RPMI-8226 leukemia, the TGI was determined as 21.5 µM.

Consider `N#Cc1ccc(OCc2ccc3nc(-c4ccccc4)c(Cl)nc3c2)cc1`, for which the TGI in the assay on MCF7 breast, with A549 NSCLC, in the assay on COLO 205 colon, with SW-620 colon, in the assay on OVCAR-4 ovarian and in the assay with NCI-H522 lung was above 100 µM throughout. The TGI with UACC-62 melanoma, with SN12C renal, in the assay with 786-0 renal, with MDA-MB-435, with MOLT-4 leukemia and in the assay on DU-145 prostate was above 100 µM each time. The TGI with SK-MEL-28 melanoma, in the assay on HS 578T breast, in the assay with MALME-3M melanoma, with HCC-2998 colon, with SNB-75 CNS and in the assay on PC-3 prostate was above 100 µM each time. Moreover, in the assay on RPMI-8226 leukemia, the TGI was above 100 µM.

Turning to `C=C(Br)CN(CC(=C)Br)C(C)=O`, the TGI with MCF7 breast, with A549 NSCLC, with COLO 205 colon, in the assay on SW-620 colon, in the assay on OVCAR-4 ovarian and with NCI-H522 lung was above 100 µM each time. Besides, the TGI in the assay on UACC-62 melanoma, in the assay with SN12C renal, in the assay with 786-0 renal, with MDA-MB-435, in the assay on MOLT-4 leukemia and in the assay with DU-145 prostate was above 100 µM throughout. The TGI with SK-MEL-28 melanoma, in the assay on HS 578T breast, in the assay with MALME-3M melanoma, with HCC-2998 colon, in the assay with SNB-75 CNS and in the assay on PC-3 prostate was above 100 µM throughout. This compound also showed a TGI with RPMI-8226 leukemia above 100 µM.

On to `CC1CC[C@@]2(OC1)OC1C[C@H]3[C@@H]4CC[C@H]5CC(OC6OC(CO)C(OC7OC(CO)C(O)C(O)C7O)C(O)C6O)CCC5(C)[C@H]4CCC3(C)C1[C@@H]2C` (some centres undefined), for which the TGI with MCF7 breast stood at 15 µM; with A549 NSCLC, 19.6 µM; in the assay on COLO 205 colon, 14 µM; with SW-620 colon, 17.8 µM; with OVCAR-4 ovarian, 17.1 µM; in the assay with NCI-H522 lung, 13.8 µM. The TGI in the assay with UACC-62 melanoma is 17.6 µM; in the assay with SN12C renal, 15.3 µM; in the assay on 786-0 renal, 15.6 µM; with MDA-MB-435, 18 µM; with MOLT-4 leukemia, 25.4 µM; in the assay on DU-145 prostate, 18 µM. The TGI turned out to be 16.6 µM in the assay on SK-MEL-28 melanoma; 17.1 µM with HS 578T breast; 15.7 µM in the assay on MALME-3M melanoma; 12.9 µM with HCC-2998 colon; 18.7 µM in the assay with SNB-75 CNS; 15.1 µM with PC-3 prostate. This compound also displayed a TGI in the assay with RPMI-8226 leukemia of 45.3 µM.

As for `CCCCCCCC(=O)N/N=C/c1ccc(Sc2nccn2C)c([N+](=O)[O-])c1`, the TGI in the assay with MCF7 breast is 38.2 µM; with A549 NSCLC, above 100 µM; with COLO 205 colon, 27.5 µM; in the assay on SW-620 colon, 32.8 µM; with OVCAR-4 ovarian, 58.3 µM; in the assay with NCI-H522 lung it was 28.4 µM. Moreover, the TGI in the assay on UACC-62 melanoma is 25.8 µM; in the assay with SN12C renal, 28.9 µM; in the assay with 786-0 renal, 32.4 µM; in the assay with MDA-MB-435, 28.5 µM; with MOLT-4 leukemia, 62.5 µM; with DU-145 prostate, 46.7 µM. Moreover, the TGI in the assay with SK-MEL-28 melanoma is 27.3 µM; in the assay with HS 578T breast, 39.3 µM; in the assay on MALME-3M melanoma it was 29 µM; in the assay on HCC-2998 colon, 26.5 µM; in the assay with SNB-75 CNS, 39 µM; with PC-3 prostate, 33.2 µM. The compound also showed a TGI in the assay with RPMI-8226 leukemia of 46.7 µM.

For `CSc1c(C(=O)Nc2ccc(Cl)cc2)c(N)[nH]c(=O)c1C#N`, the TGI is above 78.6 µM with MCF7 breast; above 100 µM in the assay on A549 NSCLC; 45.8 µM with COLO 205 colon; above 100 µM in the assay with SW-620 colon; above 100 µM in the assay with OVCAR-4 ovarian; 51.7 µM in the assay on NCI-H522 lung. Also, the TGI in the assay with UACC-62 melanoma is above 100 µM; with SN12C renal it was above 82.2 µM; with 786-0 renal, 77.9 µM; in the assay on MDA-MB-435, above 70.9 µM; with MOLT-4 leukemia, above 91.9 µM; in the assay on DU-145 prostate, above 100 µM. For the same compound, the TGI in the assay on SK-MEL-28 melanoma was above 100 µM; in the assay on HS 578T breast, above 100 µM; with MALME-3M melanoma, above 100 µM; with HCC-2998 colon, above 90.2 µM; in the assay on SNB-75 CNS it was above 100 µM; in the assay with PC-3 prostate, 47.7 µM. In the assay on RPMI-8226 leukemia, this compound came in with a TGI above 100 µM.

On to `O=C(O)C/C(=C\c1ccccc1)C(=O)O`, for which the TGI with MCF7 breast, in the assay on A549 NSCLC, in the assay with COLO 205 colon, with SW-620 colon, with OVCAR-4 ovarian and with NCI-H522 lung was above 100 µM throughout. The TGI with UACC-62 melanoma, in the assay on SN12C renal, with 786-0 renal, with MDA-MB-435, in the assay on MOLT-4 leukemia and in the assay with DU-145 prostate was above 100 µM each time. Further, the TGI in the assay on SK-MEL-28 melanoma, in the assay with HS 578T breast, in the assay on MALME-3M melanoma, in the assay on HCC-2998 colon, in the assay with SNB-75 CNS and with PC-3 prostate was above 100 µM in each case. The compound also came in with a TGI in the assay on RPMI-8226 leukemia above 100 µM.

For `CN(C)C(=C1c2cc([N+](=O)[O-])ccc2-c2ccc([N+](=O)[O-])cc21)N(C)C`, the TGI in the assay on MCF7 breast, with A549 NSCLC, in the assay with COLO 205 colon, with SW-620 colon, in the assay on OVCAR-4 ovarian and in the assay with NCI-H522 lung was above 100 µM each time. The TGI in the assay with UACC-62 melanoma, in the assay with SN12C renal, with 786-0 renal, in the assay on MDA-MB-435, in the assay on MOLT-4 leukemia and in the assay with DU-145 prostate was above 100 µM throughout. Moreover, the TGI in the assay on SK-MEL-28 melanoma, in the assay with HS 578T breast, in the assay on MALME-3M melanoma, in the assay on HCC-2998 colon, in the assay on SNB-75 CNS and in the assay on PC-3 prostate was above 100 µM each time. Moreover, the TGI in the assay on RPMI-8226 leukemia stood at 25.3 µM.

Take `NCCCc1ccc2oc3ccccc3c2c1`: the TGI came out at 34.2 µM in the assay on MCF7 breast; 32.9 µM in the assay with A549 NSCLC; 32.8 µM in the assay with COLO 205 colon; 50.3 µM with SW-620 colon; 38.3 µM with OVCAR-4 ovarian; 40 µM with NCI-H522 lung. For the same compound, the TGI was 31.9 µM in the assay on UACC-62 melanoma; 31.9 µM in the assay with SN12C renal; 28.3 µM in the assay with 786-0 renal; 29.1 µM in the assay with MDA-MB-435; 30.5 µM with MOLT-4 leukemia; 30.6 µM with DU-145 prostate. The TGI was 32.9 µM in the assay on SK-MEL-28 melanoma; 47.7 µM with HS 578T breast; 34.3 µM in the assay with MALME-3M melanoma; 22.5 µM in the assay with HCC-2998 colon; 30.6 µM with SNB-75 CNS; 33.1 µM with PC-3 prostate. The same compound gave a TGI in the assay on RPMI-8226 leukemia of 70.7 µM.

On to `Cc1ccc(-c2n[nH]c(=O)[nH]2)cc1`, for which the TGI in the assay with MCF7 breast, in the assay on A549 NSCLC, with COLO 205 colon, in the assay with SW-620 colon, in the assay on OVCAR-4 ovarian and with NCI-H522 lung was above 100 µM throughout. The TGI in the assay with UACC-62 melanoma, in the assay with SN12C renal, with 786-0 renal, with MDA-MB-435, with MOLT-4 leukemia and with DU-145 prostate was above 100 µM each time. Further, the TGI in the assay with SK-MEL-28 melanoma, in the assay with HS 578T breast, in the assay with MALME-3M melanoma, in the assay on HCC-2998 colon, in the assay on SNB-75 CNS and in the assay on PC-3 prostate was above 100 µM each time. This compound also yielded a TGI with RPMI-8226 leukemia above 100 µM.

With `Nc1nnc(-c2ccco2)c(-c2ccco2)n1`, the TGI in the assay with MCF7 breast, in the assay on A549 NSCLC, in the assay with COLO 205 colon, in the assay with SW-620 colon, with OVCAR-4 ovarian and in the assay on NCI-H522 lung was above 100 µM throughout. For the same compound, the TGI in the assay on UACC-62 melanoma, in the assay with SN12C renal, in the assay with 786-0 renal, with MDA-MB-435, with MOLT-4 leukemia and in the assay with DU-145 prostate was above 100 µM each time. The TGI in the assay with SK-MEL-28 melanoma, in the assay on HS 578T breast, with MALME-3M melanoma, in the assay on HCC-2998 colon, in the assay with SNB-75 CNS and with PC-3 prostate was above 100 µM each time. This compound also gave a TGI with RPMI-8226 leukemia above 100 µM.
